# From US10689378B2, “Triazolopyridine compounds and uses thereof” (Novartis AG, priority 2016, dated 2020)
# Like-named read-outs stand apart in the source and are kept apart here.
# How the values were obtained:
# [1] = system: H3K27 methylation in G401 cell; test: ELISA (H3K27 methylation) assay in G401 cells; type: cell-based, human; conditions: Homo sapiens
# Outline: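 IC50 from dose-response fit of percent inhibition relative to DMSO, using H3K27me3/me2 ELISA signal (ECL) normalized to histone H3. Histones HCl-extracted after 48 h compound exposure of G401 cells at up to 20 μM, 8- or 12-point 3-fold series.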
# EED (1-441)-His protein = target: T1, EED (1-441)-His protein (Homo sapiens, UniProt O75530); test: EED-H3K27Me3 peptide competition binding assay by AlphaScreen
# T1 construct: 30 nM EED (1-441)-His protein
# T1 sequence (O75530 whole entry): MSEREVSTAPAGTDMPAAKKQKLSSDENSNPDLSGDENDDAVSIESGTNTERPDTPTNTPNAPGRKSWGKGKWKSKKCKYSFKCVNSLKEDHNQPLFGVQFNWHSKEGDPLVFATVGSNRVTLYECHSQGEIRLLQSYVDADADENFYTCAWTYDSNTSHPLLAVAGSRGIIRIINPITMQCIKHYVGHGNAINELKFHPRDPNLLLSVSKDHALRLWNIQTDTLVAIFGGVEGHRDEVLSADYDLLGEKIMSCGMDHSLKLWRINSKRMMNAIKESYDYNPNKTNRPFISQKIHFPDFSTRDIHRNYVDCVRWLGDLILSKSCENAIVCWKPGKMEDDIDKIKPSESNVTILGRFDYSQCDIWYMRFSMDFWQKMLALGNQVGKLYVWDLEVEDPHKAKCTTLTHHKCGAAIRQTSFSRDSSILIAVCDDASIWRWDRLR
# Outline: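 Serially diluted compound (12 points, 3-fold) incubated 20 min with 30 nM EED(1-441)-His and 15 nM biotin-H3K27Me3(19-33) peptide in 25 mM HEPES pH 8, 0.02% Tween-20, 0.5% BSA. Ni-chelate acceptor/streptavidin donor beads (10 μg/mL each) added, 1 h rt dark; 615 nm emission normalized to controls, dose-response fit for IC50.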
# [2] = target: wild type PRC2 (wtPRC2) complex (Homo sapiens, UniProt O75530); test: EED LC-MS assay (SAH production by PRC2); type: biochemical
# Chain of wild type PRC2 (wtPRC2) complex (O75530 whole entry): as above
# Chain of wild type PRC2 (wtPRC2) complex (Q15910 whole entry partner): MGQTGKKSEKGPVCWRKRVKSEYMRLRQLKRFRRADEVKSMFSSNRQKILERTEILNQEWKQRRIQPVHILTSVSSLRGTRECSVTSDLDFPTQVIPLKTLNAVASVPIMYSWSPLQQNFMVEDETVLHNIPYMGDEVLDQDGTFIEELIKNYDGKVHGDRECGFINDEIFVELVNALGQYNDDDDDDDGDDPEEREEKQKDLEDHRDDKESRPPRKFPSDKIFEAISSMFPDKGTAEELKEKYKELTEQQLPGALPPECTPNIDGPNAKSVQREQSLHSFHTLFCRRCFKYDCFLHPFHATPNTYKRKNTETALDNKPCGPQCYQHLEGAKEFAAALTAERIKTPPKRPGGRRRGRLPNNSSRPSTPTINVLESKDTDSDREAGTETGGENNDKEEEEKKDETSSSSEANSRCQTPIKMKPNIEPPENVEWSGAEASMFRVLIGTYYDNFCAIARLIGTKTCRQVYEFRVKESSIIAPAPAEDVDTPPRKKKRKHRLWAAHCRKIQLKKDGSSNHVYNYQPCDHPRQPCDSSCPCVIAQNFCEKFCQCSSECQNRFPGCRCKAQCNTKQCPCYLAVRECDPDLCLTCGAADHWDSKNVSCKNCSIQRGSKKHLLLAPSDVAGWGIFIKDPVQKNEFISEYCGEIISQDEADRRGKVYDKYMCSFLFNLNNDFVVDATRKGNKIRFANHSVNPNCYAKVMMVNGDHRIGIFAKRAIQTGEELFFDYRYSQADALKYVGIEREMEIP
# Chain of wild type PRC2 (wtPRC2) complex (Q15022 whole entry partner): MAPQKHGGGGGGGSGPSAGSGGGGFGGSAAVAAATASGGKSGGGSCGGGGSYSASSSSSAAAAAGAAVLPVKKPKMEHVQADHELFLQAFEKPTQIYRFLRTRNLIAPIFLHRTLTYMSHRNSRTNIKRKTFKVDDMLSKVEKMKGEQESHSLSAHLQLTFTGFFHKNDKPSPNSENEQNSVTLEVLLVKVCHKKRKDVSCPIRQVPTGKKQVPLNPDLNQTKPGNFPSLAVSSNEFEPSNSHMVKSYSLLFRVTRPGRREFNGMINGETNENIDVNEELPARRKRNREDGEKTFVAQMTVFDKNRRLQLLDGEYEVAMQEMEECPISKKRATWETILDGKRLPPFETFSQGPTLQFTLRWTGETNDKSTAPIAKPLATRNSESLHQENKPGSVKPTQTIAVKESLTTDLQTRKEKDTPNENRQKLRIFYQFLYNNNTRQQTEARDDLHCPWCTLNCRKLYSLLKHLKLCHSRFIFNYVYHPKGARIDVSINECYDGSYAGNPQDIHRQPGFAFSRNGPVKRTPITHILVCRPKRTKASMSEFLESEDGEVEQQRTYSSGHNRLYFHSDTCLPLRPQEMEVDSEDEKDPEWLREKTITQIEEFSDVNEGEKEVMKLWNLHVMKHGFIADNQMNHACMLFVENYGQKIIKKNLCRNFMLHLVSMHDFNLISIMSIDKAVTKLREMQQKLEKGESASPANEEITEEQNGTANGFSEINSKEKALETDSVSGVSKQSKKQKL
# Chain of wild type PRC2 (wtPRC2) complex (Q09028 whole entry partner): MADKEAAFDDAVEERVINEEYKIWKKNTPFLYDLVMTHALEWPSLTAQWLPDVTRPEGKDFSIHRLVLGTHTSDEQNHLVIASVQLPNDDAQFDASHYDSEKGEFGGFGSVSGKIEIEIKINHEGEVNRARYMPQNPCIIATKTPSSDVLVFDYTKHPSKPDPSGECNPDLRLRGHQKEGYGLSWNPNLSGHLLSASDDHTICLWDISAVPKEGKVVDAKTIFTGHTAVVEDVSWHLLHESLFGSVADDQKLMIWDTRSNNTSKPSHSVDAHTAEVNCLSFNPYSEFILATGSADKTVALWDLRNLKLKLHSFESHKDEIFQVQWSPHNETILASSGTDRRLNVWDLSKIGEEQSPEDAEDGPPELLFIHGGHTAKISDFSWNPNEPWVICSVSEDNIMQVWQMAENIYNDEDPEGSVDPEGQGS
# Chain of wild type PRC2 (wtPRC2) complex (Q6ZN18 whole entry partner): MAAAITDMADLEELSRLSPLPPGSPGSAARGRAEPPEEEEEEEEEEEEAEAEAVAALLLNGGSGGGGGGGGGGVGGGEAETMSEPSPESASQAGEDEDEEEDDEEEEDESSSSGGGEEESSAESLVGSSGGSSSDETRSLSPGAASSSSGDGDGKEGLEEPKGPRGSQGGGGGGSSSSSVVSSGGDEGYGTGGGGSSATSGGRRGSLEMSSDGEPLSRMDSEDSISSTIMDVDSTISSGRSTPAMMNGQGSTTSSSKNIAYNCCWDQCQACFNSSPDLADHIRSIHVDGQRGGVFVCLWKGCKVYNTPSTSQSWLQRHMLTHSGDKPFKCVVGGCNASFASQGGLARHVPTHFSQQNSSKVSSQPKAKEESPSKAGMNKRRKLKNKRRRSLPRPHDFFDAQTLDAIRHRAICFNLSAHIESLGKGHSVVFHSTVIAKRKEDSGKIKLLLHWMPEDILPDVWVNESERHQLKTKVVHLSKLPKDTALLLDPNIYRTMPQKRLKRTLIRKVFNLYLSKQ
# Outline: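 LC-MS/MS readout of SAH (d4-SAH standard) after TFA quench gives PRC2 activity, normalized to controls and fitted to dose-response for IC50. Reaction: 12 nM EZH2/SUZ12/EED/Rbap48/AEBP complex, 1 μM SAM, 1.5 μM H3[21-44] peptide, 120 min rt, 20 min compound preincubation.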
# [3] = G-401, H3K27 methylation ELISA, read-out: (c) IC50 ELISA Qualified
# [4] = EED-H3K27Me3 peptide competition, AlphaScreen, read-out: (a) IC50 EED Alphascreen binding Qualified
# [5] = PRC2 LC-MS assay, read-out: (b) IC50 EED LC-MS Qualified
# [6] = G-401, read-out: (c) IC50, ELISA Qualified
# [7] = read-out: (a) IC50, EED Alphascreen binding Qualified
# [8] = read-out: (b) IC50, EED LC-MS Qualified
# [9] = G-401, read-out: (c) IC50 ELISA Qualified
# [10] = read-out: (a) IC50 EED Alphascreen binding Qualified
# [11] = read-out: (b) IC50 EED LC-MS Qualified
Compound,"IC50 [1, 3]",IC50 (EED (1-441)-His protein; [4]),"IC50 [2, 5]",further results
"COc1cccc(F)c1CNc1ccc(-c2ccc(N(C)C)nc2)c2nncn12 [Example 174, 8-(6-(dimethylamino)pyridin-3-yl)-N-(2-fluoro-6-methoxybenzyl)-[1,2,4]triazolo[4,3-a] pyridin-5-amine]",76.7 nM,47.2 nM,136 nM,–
"COc1cccc(F)c1CNc1ccc(-c2cncc(N3CCCC3=O)c2)c2nncn12 [Example 167, 1-(5-(5-((2-fluoro-6-methoxybenzyl)amino)-[1,2,4]triazolo[4,3-a]pyridin-8-yl)pyridin-3-yl)pyrrolidin-2-one]",–,–,–,"IC50 [1, 6]: 10.3 nM; IC50 (EED (1-441)-His protein; [7]): 13.4 nM; IC50 [2, 8]: 679 nM"
"COc1cccc(F)c1CNc1ccc(-n2cc(C)c(C)n2)c2nncn12 [Example 367, 8-(3,4-dimethyl-1H-pyrazol-1-yl)-N-(2-fluoro-6-methoxybenzyl)-[1,2,4]triazolo[4,3-a] pyridin-5-amine]",–,–,–,"IC50 [1, 9]: 29.1 nM; IC50 (EED (1-441)-His protein; [10]): 23.5 nM; IC50 [2, 11]: 113 nM"
"COc1cc(F)cc(F)c1CNc1ccc(-c2cnc(S(C)(=O)=O)cc2C)c2nncn12 [Example 240, N-(2,4-difluoro-6-methoxybenzyl)-8-(4-methyl-6-(methylsulfonyl)pyridin-3-yl)-[1,2,4]triazolo[4,3-a] pyridin-5-amine]",29.5 nM,52.1 nM,53.4 nM,–
"CCc1ccncc1-c1ccc(NCc2c(F)cccc2OC)n2cnnc12 [Example 272, 8-(4-ethylpyridin-3-yl)-N-(2-fluoro-6-methoxybenzyl)-[1,2,4]triazolo[4,3-a]pyridin-5-amine]",61.8 nM,34.7 nM,57.5 nM,–
"COc1cccc(F)c1CNc1ccc(-c2ccc(S(C)(=O)=O)cc2)c2nncn12 [Example 78, N-(2-fluoro-6-methoxybenzyl)-8-(4-(methylsulfonyl)phenyl)-[1,2,4]triazolo[4,3-a]pyridin-5-amine]",–,–,–,"IC50 [1, 6]: 26.1 nM; IC50 (EED (1-441)-His protein; [7]): 18 nM; IC50 [2, 8]: 75.1 nM"
"COc1cccc(F)c1CNc1ccc(-c2cncc(S(C)(=O)=O)c2)c2nncn12 [Example 140, N-(2-fluoro-6-methoxybenzyl)-8-(5-(methylsulfonyl)pyridin-3-yl)-[1,2,4]triazolo[4,3-a] pyridin-5-amine]",–,–,–,"IC50 [1, 6]: 18.8 nM; IC50 (EED (1-441)-His protein; [7]): 17.5 nM; IC50 [2, 8]: 268 nM"
"COc1cccc(F)c1CNc1ccc(-c2ccc(N(C)S(C)(=O)=O)cc2)c2nncn12 [Example 154, N-(4-(5-((2-fluoro-6-methoxybenzyl)amino)-[1,2,4]triazolo[4,3-a]pyridin-8-yl)phenyl)-N-methyl methanesulfonamide]",–,–,–,"IC50 [1, 6]: 4.9 nM; IC50 (EED (1-441)-His protein; [7]): 4.5 nM; IC50 [2, 8]: 83.4 nM"
"COc1cccc(F)c1CNc1ccc(-c2cn(C)nc2C(F)(F)F)c2nncn12 [Example 247, N-(2-fluoro-6-methoxybenzyl)-8-(1-methyl-3-(trifluoromethyl)-1H-pyrazol-4-yl)-[1,2,4]triazolo[4,3-a] pyridin-5-amine]",42.7 nM,35.8 nM,700 nM,–
"COc1cc(F)ccc1CNc1ccc(-c2ccc(CN(C)C)cc2)c2nncn12 [Example 33, 8-(4-((dimethylamino)methyl)phenyl)-N-(4-fluoro-2-methoxybenzyl)-[1,2,4] triazolo[4,3-a]pyridin-5-amine]",–,–,–,"IC50 [1, 6]: 277 nM; IC50 (EED (1-441)-His protein; [7]): 84.2 nM; IC50 [2, 8]: 294 nM"
"COc1cc(F)cc(F)c1CNc1ccc(-c2ccncc2)c2nncn12 [Example 228, N-(2,4-difluoro-6-methoxybenzyl)-8-(pyridin-4-yl)-[1,2,4]triazolo[4,3-a]pyridin-5-amine]",43.7 nM,78.9 nM,98.6 nM,–
"COc1cc(F)cc(F)c1CNc1ccc(-c2cccnc2)c2nncn12 [Example 220, N-(2,4-difluoro-6-methoxybenzyl)-8-(pyridin-3-yl)-[1,2,4]triazolo[4,3-a]pyridin-5-amine]",55.6 nM,46 nM,142 nM,–
"COc1cccc(F)c1CNc1ccc(-c2ccc(S(C)(=O)=O)nc2C)c2nncn12 [Example 185, N-(2-fluoro-6-methoxybenzyl)-8-(2-methyl-6-(methylsulfonyl)pyridin-3-yl)-[1,2,4]triazolo[4,3-a] pyridin-5-amine]",3.6 nM,7.9 nM,18.5 nM,–
"COc1cc(F)cc(F)c1CNc1ccc(-c2cnc(C)nc2OC)c2nncn12 [Example 373, N-(2,4-difluoro-6-methoxybenzyl)-8-(4-methoxy-2-methylpyrimidin-5-yl)-[1,2,4] triazolo[4,3-a]pyridin-5-amine]",–,–,–,"IC50 [1, 9]: 64.1 nM; IC50 (EED (1-441)-His protein; [10]): 48.7 nM; IC50 [2, 11]: 494 nM"
"COc1cccc(F)c1CNc1ccc(-c2nc(C)nn2C)c2nncn12 [Example 355, 8-(1,3-dimethyl-1H-1,2,4-triazol-5-yl)-N-(2-fluoro-6-methoxybenzyl)-[1,2,4] triazolo[4,3-a]pyridin-5-amine]",–,–,–,"IC50 [1, 9]: 11.7 nM; IC50 (EED (1-441)-His protein; [10]): 15.8 nM; IC50 [2, 11]: 30.5 nM"
"COc1cccc(F)c1CNc1ccc(-c2ccc(S(C)(=O)=O)nc2)c2nncn12 [Example 112, N-(2-fluoro-6-methoxybenzyl)-8-(6-(methylsulfonyl)pyridin-3-yl)-[1,2,4]triazolo[4,3-a] pyridin-5-amine]",–,–,–,"IC50 [1, 6]: 4.9 nM; IC50 (EED (1-441)-His protein; [7]): 9.8 nM; IC50 [2, 8]: 256 nM"

# Continued, in another order:
"IC50 [1, 3]",IC50 (EED (1-441)-His protein; [4]),"IC50 [2, 5]",Compound,further results
5.1 nM,13 nM,126 nM,"COc1cc(F)cc(F)c1CNc1ccc(-c2ccnn2C)c2nncn12 [Example 296, N-(2,4-difluoro-6-methoxybenzyl)-8-(1-methyl-1H-pyrazol-5-yl)-[1,2,4] triazolo[4,3-a]pyridin-5-amine]",–
16.2 nM,7.4 nM,42.1 nM,"COc1cccc(F)c1CNc1ccc(-c2c(Cl)ccnc2C)c2nncn12 [Example 338, 8-(4-chloro-2-methylpyridin-3-yl)-N-(2-fluoro-6-methoxybenzyl)-[1,2,4]triazolo[4,3-a] pyridin-5-amine]",–
8 nM,13.9 nM,50.5 nM,"COc1cccc(F)c1CNc1ccc(-c2ccnc(F)c2C)c2nncn12 [Example 276, 8-(2-fluoro-3-methylpyridin-4-yl)-N-(2-fluoro-6-methoxybenzyl)-[1,2,4]triazolo[4,3-a] pyridin-5-amine]",–
6.4 nM,23.7 nM,93.4 nM,"COc1cccc(F)c1CNc1ccc(-c2cnc(S(C)(=O)=O)cc2C(F)F)c2nncn12 [Example 301, 8-(4-(difluoromethyl)-6-(methylsulfonyl)pyridin-3-yl)-N-(2-fluoro-6-methoxybenzyl)-[1,2,4]triazolo[4,3-a] pyridin-5-amine]",–
61.3 nM,69 nM,99.7 nM,"COc1cccc(F)c1CNc1ccc(-c2cncnc2C(C)C)c2nncn12 [Example 273, N-(2-fluoro-6-methoxybenzyl)-8-(4-isopropylpyrimidin-5-yl)-[1,2,4] triazolo[4,3-a]pyridin-5-amine]",–
31.6 nM,38 nM,144 nM,"COc1c(F)ccc(F)c1CNc1ccc(-c2ccc(S(C)(=O)=O)nc2C)c2nncn12 [Example 334, N-(3,6-difluoro-2-methoxybenzyl)-8-(2-methyl-6-(methylsulfonyl)pyridin-3-yl)-[1,2,4]triazolo[4,3-a] pyridin-5-amine]",–
